From patent publication US4245106A, “Process for the preparation of 1-alkyl-3-aryl-4-pyrazolecarboxylates” (Monsanto Company, priority 1979, dated 1981)

Experiments:
Format in all cases: in vivo
[1] = test system: Cocklebur; assay: pre-emergent herbicidal activity test
Description: (§1) Table II summarizes results of tests conducted to determine the pre-emergent as well as the post-emergent herbicidal activity of the compounds. The pre-emergent test was conducted as follows:
(§2) A good grade of top soil was placed in aluminum pans and compacted to a depth of three-eighths to one-half inch from the top of the pan. On the top of the soil was placed a predetermined number of seeds or vegetative propagules of various plant species. The soil required to level fill the pans after seeding or adding vegetative propagules was weighed into a pan. A known amount of the active ingredient applied in a solvent or as a wettable powder and the soil were thoroughly mixed, and used as a cover layer for prepared pans. After treatment the pans were moved into a greenhouse bench where they were watered from below as needed to give adequate moisture for germination and growth.
(§3) A herbicial rating code was used to signify the extent of phytotoxicity of each species. The rating are defined as follows: […]

[2] = test system: Barnyard grass; assay: pre-emergent herbicidal activity test
Description: as §1, §2, §3

[3] = test system: Canada Thistle; assay: pre-emergent herbicidal activity test
Description: as §1, §2, §3

[4] = test system: Lambsquarter; assay: pre-emergent herbicidal activity test
Description: as §1, §2, §3

[5] = test system: Quackgrass; assay: pre-emergent herbicidal activity test
Description: as §1, §2, §3

[6] = test system: Velvetleaf; assay: pre-emergent herbicidal activity test
Description: as §1, §2, §3

[7] = test system: Morningglory; assay: pre-emergent herbicidal activity test
Description: as §1, §2, §3

[8] = test system: Nutsedge; assay: pre-emergent herbicidal activity test
Description: as §1, §2, §3

[9] = test system: Bromus tectorum; assay: pre-emergent herbicidal activity test
Description: as §1, §2, §3

[10] = test system: Johnsongrass; assay: pre-emergent herbicidal activity test
Description: as §1, §2, §3

[11] = test system: Smartweed; assay: pre-emergent herbicidal activity test
Description: as §1, §2, §3

[12] = test system: Cocklebur; assay: post-emergent herbicidal activity test; details: 11.2 Kg/Ha; approximately four weeks later
Description: (§4) The post-emergent tests were conducted as follows. The active ingredients are applied in spray form to two or three-week old specimens of various plant species. The spray, a solution or wettable powder suspension containing the appropriate rate of active ingredient to give the desired test rate and a surfactant, is applied to the plants. The treated plants are placed in a greenhouse and unless otherwise noted approximately four weeks later the effects are observed and recorded.

[13] = test system: Barnyard grass; assay: post-emergent herbicidal activity test; details: 11.2 Kg/Ha; approximately four weeks later
Description: as §4

[14] = test system: Canada Thistle; assay: post-emergent herbicidal activity test; details: 11.2 Kg/Ha; approximately four weeks later
Description: as §4

[15] = test system: Lambsquarter; assay: post-emergent herbicidal activity test; details: 11.2 Kg/Ha; approximately four weeks later
Description: as §4

[16] = test system: Quackgrass; assay: post-emergent herbicidal activity test; details: 11.2 Kg/Ha; approximately four weeks later
Description: as §4

[17] = test system: Velvetleaf; assay: post-emergent herbicidal activity test; details: 11.2 Kg/Ha; approximately four weeks later
Description: as §4

[18] = test system: Morningglory; assay: post-emergent herbicidal activity test; details: 11.2 Kg/Ha; approximately four weeks later
Description: as §4

[19] = test system: Nutsedge; assay: post-emergent herbicidal activity test; details: 11.2 Kg/Ha; approximately four weeks later
Description: as §4

[20] = test system: Bromus tectorum; assay: post-emergent herbicidal activity test; details: 11.2 Kg/Ha; approximately four weeks later
Description: as §4

[21] = test system: Johnsongrass; assay: post-emergent herbicidal activity test; details: 11.2 Kg/Ha; approximately four weeks later
Description: as §4

[22] = test system: Smartweed; assay: post-emergent herbicidal activity test; details: 11.2 Kg/Ha; approximately four weeks later
Description: as §4

[23] = 11.2 Kg/Ha, approximately 28 days after seeding and treating
[24] = *11.2 Kg/Ha, observed approximately 14 days after treatment
Note: ranges in brackets are in %.

Compound	Post-Emergent herbicidal rating, B Cocklebur [12]	Post-Emergent herbicidal rating, K Barnyard grass [13]	Post-Emergent herbicidal rating, A Canada Thistle [14]	Post-Emergent herbicidal rating, E Lambsquarter [15]	Post-Emergent herbicidal rating, H Quackgrass [16]	Post-Emergent herbicidal rating, C Velvetleaf [17]	Post-Emergent herbicidal rating, D Morningglory [18]	Post-Emergent herbicidal rating, G Nutsedge [19]	Post-Emergent herbicidal rating, J Bromus tectorum [20]	Post-Emergent herbicidal rating, I Johnsongrass [21]	Post-Emergent herbicidal rating, F Smartweed [22]	further results
CCCCOC(=O)c1cn(C)nc1-c1cccc(C(F)(F)F)c1 [Example 30]	1 (25-49)	1 (25-49)	0 (0-24)	3 (75-99)	0 (0-24)	1 (25-49)	1 (25-49)	0 (0-24)	1 (25-49)	1 (25-49)	0 (0-24)	Pre-Emergent herbicidal rating, B Cocklebur [1, 23]: 0 (0-24); Pre-Emergent herbicidal rating, K Barnyard grass [2, 23]: 3 (75-100); Pre-Emergent herbicidal rating, A Canada Thistle [3, 23]: 2 (50-74); Pre-Emergent herbicidal rating, E Lambsquarter [4, 23]: 3 (75-100); Pre-Emergent herbicidal rating, H Quackgrass [5, 23]: 0 (0-24); Pre-Emergent herbicidal rating, C Velvetleaf [6, 23]: 1 (25-49); Pre-Emergent herbicidal rating, D Morningglory [7, 23]: 0 (0-24); Pre-Emergent herbicidal rating, G Nutsedge [8, 23]: 0 (0-24); Pre-Emergent herbicidal rating, J Bromus tectorum [9, 23]: 2 (50-74); Pre-Emergent herbicidal rating, I Johnsongrass [10, 23]: 0 (0-24); Pre-Emergent herbicidal rating, F Smartweed [11, 23]: 3 (75-100)
CCOC(=O)c1cn(C)nc1-c1ccc(OC)cc1 [Example 31]	0 (0-24)	1 (25-49)	0 (0-24)	4 (100)	0 (0-24)	1 (25-49)	1 (25-49)	0 (0-24)	0 (0-24)	0 (0-24)	4 (100)	Pre-Emergent herbicidal rating, B Cocklebur [1, 24]: 0 (0-24); Pre-Emergent herbicidal rating, K Barnyard grass [2, 24]: 0 (0-24); Pre-Emergent herbicidal rating, A Canada Thistle [3, 24]: 0 (0-24); Pre-Emergent herbicidal rating, E Lambsquarter [4, 24]: 0 (0-24); Pre-Emergent herbicidal rating, H Quackgrass [5, 24]: 0 (0-24); Pre-Emergent herbicidal rating, C Velvetleaf [6, 24]: 0 (0-24); Pre-Emergent herbicidal rating, D Morningglory [7, 24]: 0 (0-24); Pre-Emergent herbicidal rating, G Nutsedge [8, 24]: 0 (0-24); Pre-Emergent herbicidal rating, J Bromus tectorum [9, 24]: 0 (0-24); Pre-Emergent herbicidal rating, I Johnsongrass [10, 24]: 0 (0-24); Pre-Emergent herbicidal rating, F Smartweed [11, 24]: 0 (0-24)
